From ChEMBL document CHEMBL5725323, “Heterocyclic ITK inhibitors for treating inflammation and cancer” (2017) come the findings set out here.

Some results are limits rather than exact numbers.

A word on the IC50: it is the concentration that inhibits the measured activity by half.

For the first test, the target named is T1, Tyrosine-protein kinase ITK/TSK (Homo sapiens, UniProt Q08881).
T1 sequence (Q08881 whole entry): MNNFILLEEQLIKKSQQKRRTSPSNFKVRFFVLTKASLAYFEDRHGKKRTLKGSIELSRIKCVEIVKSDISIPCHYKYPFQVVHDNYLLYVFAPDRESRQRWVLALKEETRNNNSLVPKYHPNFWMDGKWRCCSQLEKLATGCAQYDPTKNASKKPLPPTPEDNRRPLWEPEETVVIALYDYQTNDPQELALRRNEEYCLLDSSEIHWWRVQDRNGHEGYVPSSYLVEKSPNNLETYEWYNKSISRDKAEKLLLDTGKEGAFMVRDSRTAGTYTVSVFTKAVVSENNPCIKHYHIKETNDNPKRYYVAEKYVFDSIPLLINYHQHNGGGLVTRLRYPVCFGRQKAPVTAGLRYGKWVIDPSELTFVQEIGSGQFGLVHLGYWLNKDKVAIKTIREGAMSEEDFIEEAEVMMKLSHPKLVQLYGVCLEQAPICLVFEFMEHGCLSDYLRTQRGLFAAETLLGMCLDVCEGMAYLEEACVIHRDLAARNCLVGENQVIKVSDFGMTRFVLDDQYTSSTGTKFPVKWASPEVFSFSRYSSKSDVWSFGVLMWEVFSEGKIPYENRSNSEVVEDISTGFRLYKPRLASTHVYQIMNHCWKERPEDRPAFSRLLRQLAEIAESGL
Description: ITK Target Modulation PLC-gamma Assay: Compounds were serially diluted into DMSO, and then into media to concentrations 10× that of the final assay concentration. Compounds were then added to the cells with the final assay DMSO concentration being 0.1%. Cells were incubated for 1 hour at 37° C. Following compound incubation, αCD3 Dynabeads were added at 1 bead/cell to each assay well and incubated at 37° C. for 7 minutes. Unstimulated control wells received media only. The plate was then placed on a 96-well magnetic plate for an additional 60 seconds (total assay stimulation time equals 8 minutes). The plate was then dumped and gently patted dry on a paper towel. 50 ul of complete Meso Scale Discovery (MSD) Lysis buffer was then added to each well. Samples were assayed for phospho-PLCγ1 using Meso Scale Discovery technology.
Turning to `C=CC(=O)Nc1cc(-c2cnc3[nH]cc(-c4ccnc(OC)c4)c3c2)cc(C(O)(CC)CC)c1`, the IC50 was in the range of 1000 to 5000 nM.

As for `C=CC(=O)Nc1cccc(-c2cnc3[nH]cc(-c4cc(NC)ncn4)c3c2)c1`, the IC50 was in the range of 1000 to 5000 nM.

As for `C=CC(=O)Nc1cccc(-c2cnc3[nH]cc(-c4cccc(C#N)c4)c3c2)c1`, the IC50 fell in the range of 1000 to 5000 nM.

For `C=CC(=O)Nc1cccc(-c2cnc3[nH]cc(-c4cc(C)nc(OC)c4)c3c2)c1`, the 50% inhibitory concentration (IC50) lay within 1000 to 5000 nM.

Consider `C=CC(=O)Nc1cccc(-c2cnc3[nH]cc(-c4cn(CC5CC5)c(=O)c5[nH]ccc45)c3c2)c1`, for which the IC50 is 1000 to 5000 nM.

In turn, `C=CC(=O)Nc1cc(-c2cnc3[nH]cc(-c4ccnc(OC)c4)c3c2)cc(-c2cnn(C)c2)c1` yielded a 50% inhibitory concentration (IC50) of less than 1000 nM.

The molecule `C=CC(=O)Nc1cccc(-c2cnc3[nH]cc(-c4ccnc(F)c4)c3c2)c1` gave an IC50 of less than 1000 nM.

As for `C=CC(=O)Nc1cc(OC)cc(-c2cnc3[nH]cc(-c4ccncc4)c3c2)c1`, the IC50 was less than 1000 nM.

Consider `C=CC(=O)Nc1cc(-c2cnc3[nH]cc(-c4ccc(OC)nc4)c3c2)cc(C(F)(F)F)c1`, for which the IC50 was in the range of 1000 to 5000 nM.

With `C=CC(=O)Nc1cc(-c2cnc3[nH]cc(-c4ccncc4)c3c2)cc(C(F)(F)F)c1`, the IC50 was less than 1000 nM.

In the case of `C=CC(=O)Nc1cccc(-c2cnc3[nH]cc(-c4cccc5occc45)c3c2)c1`, the IC50 was greater than 5000 nM.

In the case of `C=CC(=O)Nc1cccc(-c2cnc3[nH]cc(-c4ccncn4)c3c2)c1`, the IC50 was less than 1000 nM.

Molecule `C=CC(=O)Nc1cccc(-c2cnc3[nH]cc(-c4cccc(OC)c4)c3c2)c1` registered a half-maximal inhibitory concentration (IC50) of 1000 to 5000 nM.

On to `C=CC(=O)Nc1cccc(-c2cnc3[nH]cc(-c4ccnc(NC)n4)c3c2)c1`, for which the IC50 was less than 1000 nM.

Molecule `C=CC(=O)Nc1cccc(-c2cnc3[nH]cc(-c4cccc5ncccc45)c3c2)c1` displayed an IC50 of 1000 to 5000 nM.

The molecule `C=CC(=O)Nc1cccc(-c2cnc3[nH]cc(-c4ccnc(NC)c4)c3c2)c1` displayed an IC50 of less than 1000 nM.

`C=CC(=O)Nc1cccc(-c2cnc3[nH]cc(-c4cccc5[nH]ccc45)c3c2)c1` yielded an IC50 of 1000 to 5000 nM.

On to `C=CC(=O)Nc1cccc(-c2cnc3[nH]cc(-c4ccccc4C)c3c2)c1`, for which the IC50 was 1000 to 5000 nM.

`Cc1cc(-c2c[nH]c3ncc(-c4cccc(/C=C(\C#N)C(N)=O)c4)cc23)ccn1` returned an IC50 of 1000 to 5000 nM.

The molecule `C=CC(=O)Nc1cccc(-c2cnc3[nH]cc(-c4ccc(=O)n(CC5CC5)c4)c3c2)c1` showed an IC50 of less than 1000 nM.

For the molecule `C=CC(=O)Nc1cccc(-c2cnc3[nH]cc(-c4ccnc5ccccc45)c3c2)c1`, the IC50 is 1000 to 5000 nM.

The target of the next test is T1, Tyrosine-protein kinase ITK/TSK. Description: ITK Inhibitor Binding Kinetics: This assay is based on the binding of a proprietary, Alexa Fluor 647-labeled, ATP-competitive kinase inhibitor (kinase tracer-236) to the ITK expression construct in the presence of a Europium-conjugated antibody, resulting in a FRET (fluorescence resonance energy transfer) signal. Displacement of the kinase tracer by compound results in a lower emission ratio upon excitation of the Europium chelate. Candidate compounds are designed as potential irreversible inhibitors of ITK, capable of ligating to an active site cysteine residue resulting in time dependent covalent binding. The time dependent nature of irreversible inhibition is investigated by performing the binding assay with and without a pre-incubation of compound and ITK.
As for `C=CC(=O)Nc1cccc(-c2cnc3[nH]cc(-c4ccc(OCC5CC5)nc4)c3c2)c1`, the IC50 was less than 1000 nM.

With `COc1cc(/C=C(\C#N)C(N)=O)cc(-c2cnc3[nH]cc(-c4ccnc(OC)c4)c3c2)c1`, the IC50 was less than 1000 nM.

As to `C=CC(=O)Nc1cncc(-c2cnc3[nH]cc(-c4cn(C)c(=O)c5[nH]ccc45)c3c2)c1`, the IC50 is less than 1000 nM.

Turning to `C=CC(=O)Nc1cccc(-c2cnc3[nH]cc(-c4ccnc(C)c4)c3c2)c1`, the IC50 is less than 1000 nM.

For the molecule `C=CC(=O)Nc1cccc(-c2cnc3[nH]cc(-c4ccnc5[nH]ccc45)c3c2)c1`, the IC50 was less than 1000 nM.

Take `C=CC(=O)Nc1cccc(-c2cnc3[nH]cc(-c4cc(C)ncn4)c3c2)c1`: the IC50 is less than 1000 nM.

In the case of `C=CC(=O)Nc1cccc(-c2cnc3[nH]cc(-c4cccnc4)c3c2)c1`, the IC50 is less than 1000 nM.

In the case of `C=CC(=O)Nc1cc(-c2cnc3[nH]cc(-c4cccnc4)c3c2)cc(C(F)(F)F)c1`, the IC50 is less than 1000 nM.

Regarding `C=CC(=O)Nc1cccc(-c2cnc3[nH]cc(-c4ccc(NC)nc4)c3c2)c1`, the IC50 is less than 1000 nM.

On to `N#C/C(=C\c1cccc(-c2cnc3[nH]cc(-c4ccc(F)nc4)c3c2)c1)C(N)=O`, for which the IC50 is less than 1000 nM.

Consider `C=C(C)C(=O)Nc1cc(-c2cnc3[nH]cc(-c4ccnc(OC)c4)c3c2)cc(-c2cnn(C)c2)n1`, for which the IC50 was less than 1000 nM.

On to `C=CC(=O)Nc1cccc(-c2cnc3[nH]cc(-c4cc(C)cc(OC)n4)c3c2)c1`, for which the IC50 is less than 1000 nM.

For `C=CC(=O)Nc1cccc(-c2cnc3[nH]cc(-c4cc(OC)nc(C(F)(F)F)c4)c3c2)c1`, the IC50 is greater than 1000 nM.

On to `C=CC(=O)Nc1cc(C#N)cc(-c2cnc3[nH]cc(-c4ccncc4)c3c2)c1`, for which the IC50 is less than 1000 nM.

Take `C=CC(=O)Nc1cc(-c2cnc3[nH]cc(-c4ccnc(F)c4)c3c2)cc(C(F)(F)F)c1`: the IC50 was less than 1000 nM.

Take `N#C/C(=C\c1cccc(-c2cnc3[nH]cc(-c4ccncn4)c3c2)c1)C(N)=O`: the IC50 is less than 1000 nM.

On to `C=CC(=O)Nc1cccc(-c2cnc3[nH]cc(-c4ccc(=O)n(CC(C)(C)O)c4)c3c2)c1`, for which the IC50 was less than 1000 nM.

With `C=CC(=O)Nc1cccc(-c2cnc3[nH]cc(-c4ccc(F)nc4)c3c2)c1`, the IC50 was less than 1000 nM.

Consider `C=CC(=O)Nc1cc(-c2cnc3[nH]cc(-c4ccc(F)nc4)c3c2)cc(C(F)(F)F)c1`, for which the IC50 is less than 1000 nM.

On to `C=CC(=O)Nc1cccc(-c2cnc3[nH]cc(-c4cccc5ccccc45)c3c2)c1`, for which the IC50 was less than 1000 nM.

For `COC/C=C/C(=O)Nc1cccc(-c2cnc3[nH]cc(-c4ccnc(OC)c4)c3c2)c1`, the half-inhibitory concentration (IC50) is less than 1000 nM.

Turning to `C=CC(=O)Nc1cccc(-c2cnc3[nH]cc(-c4cncc5[nH]ccc45)c3c2)c1`, the IC50 is less than 1000 nM.

Consider `C=CC(=O)Nc1cccc(-c2cnc3[nH]cc(-c4cc(OC)ncc4C)c3c2)c1`, for which the IC50 was less than 1000 nM.

As for `C=CC(=O)Nc1cccc(-c2cnc3[nH]cc(-c4ccc(=O)n(C)c4)c3c2)c1`, the IC50 is less than 1000 nM.

In the case of `C=CC(=O)Nc1cccc(-c2cnc3[nH]cc(-c4cccc5cnccc45)c3c2)c1`, the IC50 was less than 1000 nM.

Take `C=CC(=O)NC1CN(c2cnc3[nH]cc(-c4ccnc(C#N)c4)c3c2)C1`: the IC50 is less than 1000 nM.

`C=CC(=O)Nc1cccc(-c2cnc3[nH]cc(-c4ccc(OC)nc4)c3c2)c1`: the IC50 is less than 1000 nM.

For `C=CC(=O)Nc1cccc(-c2cnc3[nH]cc(-c4cncc(Cl)c4)c3c2)c1`, the IC50 was less than 1000 nM.
